Laboratory results taken from paper PMC6615261, “Repurposing Azithromycin and Rifampicin Against Gram-Negative Pathogens by Combination With Peptidomimetics” (Frontiers in Cellular and Infection Microbiology, 2019).
Read-outs that look alike come from different tables or passages of the source.

Tests used:
[1] = MTS/PMS cell viability assay; type: cell-based; settings: human, HepG2 hepatocytes, 1 h exposure, read-out: Cytotoxicity HepG2 EC50 ± SD
How it was run: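 NIH 3T3 and HepG2 cells at 80–90% confluence exposed 1 h to compound in serum-free medium, then MTS/PMS added for 1 h at 37 °C; absorbance read at 492 nm. Viability normalized to medium (0% death) and 0.2% SDS (100% death); EC50 from Hill fit constrained 0–100%, technical triplicates.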

[2] = test system: MDR E. coli ST131; assay: Screening of peptidomimetic-antibiotic combinations (growth / growth inhibition); type: cell-based, Escherichia coli; design: key to Growth in combination with RIF / Growth in combination with AZM: Growth (+); growth inhibition (–)
[3] = test system: K. pneumoniae ST258; assay: as above; type: cell-based, Klebsiella pneumoniae; design: key to Growth in combination with RIF / Growth in combination with AZM: Growth (+); growth inhibition (–)
[4] = test system: E. coli ST131
How it was run: (§1)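 Two-dimensional checkerboard broth microdilution in MHB II, with twofold dilutions of peptidomimetic and antibiotic on crossed axes and 18–20 h incubation per CLSI. FICI = MICA(A+B)/MICA(alone) + MICB(A+B)/MICB(alone); ≤0.5 is interpreted as synergy.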

[5] = test system: K. pneumoniae ST258
How it was run: as §1

[6] = test system: P. aeruginosa ATCC 27853
How it was run: as §1

[7] = 0.5 μM peptidomimetic + 0.5 μg/mL rifampicin
[8] = 0.5 μM peptidomimetic + 1 μg/mL azithromycin
[9] = peptidomimetic 0.5 μM + azithromycin 1 μg/mL
[10] = peptidomimetic 0.5 μM + rifampicin 0.5 μg/mL
[11] = MIC of azithromycin combined with the labelled peptidomimetic
[12] = MIC of rifampicin combined with the labelled peptidomimetic

Antibiotic MIC in combination (AZM) [4, 11]: 1 µg/mL
Antibiotic MIC in combination (RIF) [4, 12]: 0.06 µg/mL
Peptidomimetic MIC alone ([4]; checkerboard): 2 µM
Peptidomimetic MIC in combination ([4]; combined with AZM): 0.25 µM
Peptidomimetic MIC in combination ([4]; combined with RIF): 0.5 µM
Antibiotic MIC in combination (AZM) [5, 11]: 4 µg/mL
Antibiotic MIC in combination (RIF) [5, 12]: 0.25 µg/mL
Peptidomimetic MIC alone ([5]; checkerboard): 16 µM
Peptidomimetic MIC in combination ([5]; combined with AZM): 0.5 µM
Peptidomimetic MIC in combination ([5]; combined with RIF): 0.5 µM
Antibiotic MIC in combination (RIF) ([6]; P. aeruginosa ATCC 27853, MIC of rifampicin combined with the labelled peptidomimetic): 1 µg/mL
Peptidomimetic MIC alone ([6]; P. aeruginosa ATCC 27853, checkerboard): 1 µM
Peptidomimetic MIC in combination ([6]; P. aeruginosa ATCC 27853, combined with AZM): 0.25 µM
Peptidomimetic MIC in combination ([6]; P. aeruginosa ATCC 27853, combined with RIF): 0.25 µM
Reduction of the MIC of azithromycin ([6]; P. aeruginosa, sub-MIC concentrations of peptidomimetic): 32- to 512 fold
Structure (SMILES): NCCCC[C@H](NC(=O)CCN(Cc1ccccc1)C(=O)[C@H](CCCCN)NC(=O)CCN(Cc1ccccc1)C(=O)[C@H](CCCCN)NC(=O)CCN(Cc1ccccc1)C(=O)[C@H](CCCCN)NC(=O)CCN(Cc1ccccc1)C(=O)[C@H](CCCCN)NC(=O)CCN(Cc1ccccc1)C(=O)[C@H](CCCCN)NC(=O)CCN(Cc1ccccc1)C(=O)[C@H](CCCCN)NC(=O)CCN(Cc1ccccc1)C(=O)[C@@H](N)CCCCN)C(=O)N(CCC(N)=O)Cc1ccccc1 [Peptidomimetic 1, H-(Lys-βNPhe)8-NH2]
EC50 at 1 h [1]: 124 ± 0.81 µM
Screening result with rifampicin [2, 7]: inhibit growth
Screening result with azithromycin [2, 8]: prevented growth
Growth in combination with AZM [2, 9]: –
Growth in combination with RIF [2, 10]: –
Screening result with rifampicin [3, 7]: inhibit growth
Screening result with azithromycin [3, 8]: prevented growth
Growth in combination with AZM [3, 9]: –
Growth in combination with RIF [3, 10]: –
